Like-named read-outs stand apart in the source and are kept apart here.
How the values were obtained:
synthèse de la mélanine = test: Inhibition of melanin synthesis in keratinocyte/melanocyte coculture (ratio of thiouracil to leucine incorporation); type: cell-based; conditions: concentration at which 50 % of melanin synthesis is inhibited; thiouracil/leucine incorporation relative to 100 % of control
Text: (§1) Ce test est réalisé sur coculture de kératinocytes et de mélanocytes.
(§2) Pour le composé testé, il a été déterminé : • la cytotoxicité, en estimant l'incorporation de la leucine, • l'activité inhibitrice sur la synthèse de la mélanine, en estimant le rapport de l'incorporation de thiouracile à l'incorporation de leucine, rapporté à 100 % du témoin (le témoin correspond au test réalisé sans composé à testé). Les valeurs des IC50 (concentration pour laquelle 50 % de la synthèse de la mélanine est inhibée) ont été déterminées.

[1] = system: coculture de kératinocytes et de mélanocytes; test: Cytotoxicity on keratinocyte/melanocyte coculture (leucine incorporation); conditions: coculture of keratinocytes and melanocytes
Text: as §1, §2

[2] = system: modèle de peau reconstruite complet comprenant un derme vivant; test: Pigmentation in complete reconstructed skin model with living dermis, pigmentation induced by forskolin; type: cell-based
Text: L'activité du composé 1 a été évaluée sur le modèle de peau reconstruite complet décrit dans le brevet FR2928654 selon le procédé décrit dans le brevet FR2930644.
Le composé 1 a été ajouté au milieu de culture pendant une période de 16 jours à partir du 2eme jour de la phase d'émersion. La pigmentation a été induite par la Forskoline ajoutée pendant une période de 14 jours à partir du 4eme jour d'émersion (condition contrôle positif pigmenté).
Le composé 1 a montré une activité dépigmentante sur les paramètres suivants : • Luminance (clarté de la peau) plus la valeur de luminance est élevée plus l'échantillon de peau est clair : • augmentation significative de 6 points de la luminance pour le composé1 (Valeur de L contrôle positif = 63, valeur de L traitement par molécule 1 à 1 mM = 69) • Quantification de la mélanine par analyse d'images sur des coupes colorées au Fontana Masson (coloration argentique des grains de mélanine) : réduction de 60% de la quantité de mélanine par le composé 1 (contrôle positif = valeur arbitraire de 100%, composé 1 à 1 mM = 39,48%).

[3] = system: coculture de kératinocytes et de mélanocytes
Text: as §1, §2

O=c1cc(CO)occ1O [Acide kojique]
IC50 (synthèse de la mélanine): > 500 µM
Cytotoxicité sur co-culture [1]: 100 µM

OC[C@H]1O[C@@H](Oc2ccc(O)cc2)[C@H](O)[C@@H](O)[C@@H]1O [Arbutine]
IC50 (synthèse de la mélanine): > 500 µM
Cytotoxicité sur co-culture [1]: Non cytotoxique

COc1cc(CCC(O)CC2OC[C@@H](O)[C@H](O)[C@H]2O)ccc1O (stereo partly drawn) [Composé 1, (3R,4S,5R)-2-[2-hydroxy-4-(4-hydroxy-3-methoxyphenyl)butyl]tetrahydro-2H-pyran-3,4,5-triol]
valeur de L (luminance) ([2]; 1 mM, 16 days in culture medium, forskolin-induced pigmentation, higher = lighter skin): 69
augmentation de la luminance ([2]; 1 mM, 16 days in culture medium, versus forskolin positive control (L = 63)): 6 points
quantité de mélanine (contrôle positif = valeur arbitraire de 100%) ([2]; 1 mM, image analysis of Fontana Masson stained sections): 39,48%
réduction de la quantité de mélanine ([2]; 1 mM, image analysis of Fontana Masson stained sections, versus positive control): 60%
effet toxique ([2]; histology (morphology of reconstructed skin) and number of melanocytes (TRP1 labelling, DOPA reaction on epidermal sheet)): absence d'effet toxique

Oc1ccc(CCC(O)CC2OC[C@@H](O)[C@H](O)[C@H]2O)c(O)c1 (stereo partly drawn) [Composé 11, (3R,4S,5R)-2-[2-hydroxy-4-(2,4-di-hydroxy-phenyl)butyl]tetrahydro-2H-pyran-3,4,5-triol]
IC50 (synthèse de la mélanine): 145 µM
Cytotoxicité sur co-culture [3]: Non cytotoxique
